This series has as its system rodent carcinogenicity bioassays, tumor incidence. The series is described as follows: CCRIS carcinogenicity studies. The conditions noted are these: Route: INHALATION, Dose: 0, Dose: 0. An outline of the steps:
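NCI-built, expert-reviewed records of carcinogenicity and related test outcomes (mutagenicity, tumor promotion/inhibition) compiled from published and report sources, historical span 1985-2011, not updated.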

The source made the active and inactive calls. The rule behind the calls is not given here.

On to `C=CC(=C)Cl`, for which the carcinogen call (Species: HAMSTER, Strain/Sex: SYRIAN/FEMALE, 10, 50 PPM 6 HR/D 5 D/WK FOR 18 MO (STUDY DURATION: 18 MO), 10, 50 PPM 6 HR/D 5 D/WK FOR 18 MO (STUDY DURATION: 18 MO)) is “inactive; negative”; the carcinogen call (Species: HAMSTER, Strain/Sex: SYRIAN/MALE, 10, 50 PPM 6HR/D 5 D/WK FOR 18 MO (STUDY DURATION: 18 MO), 10, 50 PPM 6HR/D 5 D/WK FOR 18 MO (STUDY DURATION: 18 MO)) was “inactive; negative”; the carcinogen call (Species: MOUSE, Strain/Sex: ALBINO/MALE, FEMALE, 2.9, 19.18, 189 MG/M3 4 HR/D 6 D/WK FOR 7 MO (STUDY DURATION: 8 MO), 2.9, 19.18, 189 MG/M3 4 HR/D 6 D/WK FOR 7 MO (STUDY DURATION: 8 MO), Tumor Site: Type of Lesion: LUNG: TUMOR) was “active; positive”; the carcinogen call (Species: MOUSE, Strain/Sex: B6C3F1/FEMALE, 12.8, 32, 80 PPM 6 HR/D 5 D/WK FOR 105 WK (STUDY DURATION: 106 WK), 12.8, 32, 80 PPM 6 HR/D 5 D/WK FOR 105 WK (STUDY DURATION: 106 WK), Tumor Site: Type of Lesion: LUNG: ALVEOLAR/BRONCHIOLAR ADENOMA, ALVEOLAR/BRONCHIOLAR CARCINOMA, CIRCULATORY SYSTEM: HEMANGIOMA, HEMANGIOSARCOMA, HAR, Tumor Site: Type of Lesion: LUNG: ALVEOLAR/BRONCHIOLAR ADENOMA, ALVEOLAR/BRONCHIOLAR CARCINOMA, CIRCULATORY SYSTEM: HEMANGIOMA, HEMANGIOSARCOMA, HAR) is “active; positive”; the carcinogen call (Species: MOUSE, Strain/Sex: B6C3F1/MALE, 12.8, 32, 80 PPM 6 HR/D 5 D/WK FOR 105 WK (STUDY DURATION: 106 WK), 12.8, 32, 80 PPM 6 HR/D 5 D/WK FOR 105 WK (STUDY DURATION: 106 WK), Tumor Site: Type of Lesion: LUNG: ALVEOLAR/BRONCHIOLAR ADENOMA, ALVEOLAR/BRONCHIOLAR CARCINOMA, CIRCULATORY SYSTEM: HEMANGIOSARCOMA, HEMANGIOSARCOMA) was “active; positive”; the carcinogen call (Species: RAT, Strain/Sex: F344/FEMALE, 12.8, 32, 80 PPM 6 HR/D 5 D/WK FOR 105 WK (STUDY DURATION: 106 WK), 12.8, 32, 80 PPM 6 HR/D 5 D/WK FOR 105 WK (STUDY DURATION: 106 WK), Tumor Site: Type of Lesion: ORAL CAVITY: SQUAMOUS CELL PAPILLOMA, SQUAMOUS CELL PAPILLOMA OR CARCINOMA, THYROID GLAND: FOLLICULAR CELL ADENOMA OR CA) was “active; positive”. Further, the carcinogen call is “active; positive” (Species: RAT, Strain/Sex: F344/MALE, 12.8, 32, 80 PPM 6 HR/D 5 D/WK FOR 105 WK (STUDY DURATION: 106 WK), 12.8, 32, 80 PPM 6 HR/D 5 D/WK FOR 105 WK (STUDY DURATION: 106 WK), Tumor Site: Type of Lesion: ORAL CAVITY: SQUAMOUS CELL PAPILLOMA, SQUAMOUS PAPILLOMA OR CARCINOMA, THYROID GLAND: FOLLICULAR CELL ADENOMA OR CARCINO); “inactive; negative” (Species: RAT, Strain/Sex: WISTAR/FEMALE, 10, 50 PPM 6 HR/D 5D/WK FOR 24 MO AT 72 WK 73 FEMALE RATS IN LOW DOSE GROUP DIED DUE TO MALFUNCTION IN EXPOSURE APPAR, 10, 50 PPM 6 HR/D 5D/WK FOR 24 MO AT 72 WK 73 FEMALE RATS IN LOW DOSE GROUP DIED DUE TO MALFUNCTION IN EXPOSURE APPAR); “inactive; negative” (Species: RAT, Strain/Sex: WISTAR/MALE, 10, 50 PPM 6 HR/D 5D/WK FOR 24 MO AT 72 WK 82 MALE RATS IN LOW DOSE GROUP DIED DUE TO MALFUNCTION IN EXPOSURE APPARAT, 10, 50 PPM 6 HR/D 5D/WK FOR 24 MO AT 72 WK 82 MALE RATS IN LOW DOSE GROUP DIED DUE TO MALFUNCTION IN EXPOSURE APPARAT).
